In patent US20150265642A1, “NAD BIOSYNTHESIS AND PRECURSORS IN THE PREVENTION AND TREATMENT OF INFLAMMATION” (PRESIDENT AND FELLOWS OF HARVARD COLLEGE, priority 2013, published 2015):

Key:
[1] = tested on: skeletal muscle mitochondria; test: Mitochondrial function in skeletal muscle (membrane potential, ATP content, COX activity); format: in vivo, mice
Experimental: C57BL/6J mice of 3, 6, 22, 24, or 30 months of age were obtained from the National Institutes of Aging mouse aging colony. Mice were acclimated for at least one-week prior to sacrifice. 3, and 24-month-old mice were given interperitoneal (IP) injections of 500 mg NMN/kg body weight per day or the equivalent volume of PBS for 7 consecutive days at 5:00 pm and 7:00 am on day 8 and sacrificed 4 hr after last injection. All animal studies followed the guidelines of and were approved by the Harvard Institutional Animal Care and Use Committee
Skeletal muscle mitochondria were isolated as described previously (Frezza et al., Nat. Protoc. 2:287-295 (2007)). Mitochondrial membrane potential, cytochrome c activity and succinate dehydrogenase were determined as described (Brautigan et al., Methods Enzymol. 53:128-164 (1978); Rolo et al., Biochim. Biophys. Acta. 1637:127-132 ([…]); Singer, T. P., Methods Biochem. Anal. 22:123-175 (1974)). ATP content was measured with a commercial kit according to the manufacturer's instructions (Roche).
C57BL/6J mice of 6, 22, or 30 months of age were obtained from the National Institutes of Aging mouse aging colony. Additionally 22 months old caloric restricted mice were also obtained from the National Institutes of Aging mouse aging colony. EGLN1 KO, SIRT1 KO and SIRT1 OE mice were generated as previously described (Minamishima et al., 2008; Price et al., 2012). Mice were acclimated for at least one-week prior to sacrifice. 3, 6, 22 and 24-month-old mice were given interperitoneal (IP) injections of 500 mg NMN/kg body weight per day or the equivalent volume of PBS for 7 consecutive days at 5:00 pm and 7:00 am on day 8 and sacrificed 4 hr after last injection.
Whole body adult-inducible Egln1 knockout mice (Minamishima et al, 2007) were treated with IP injection of tamoxifen for 3 days after which they were allowed to rest. The mice were given interperitoneal (IP) injections of 500 mg NMN/kg body weight per day or the equivalent volume of PBS for 7 consecutive days at 5:00 pm and 7:00 am on day 8 and sacrificed 4 hr after last injection. All animal studies followed the guidelines of and were approved by the Harvard Institutional Animal Care and Use Committee.
Cytochrome c oxidase activity was polarographically determined based on the 02 consumption upon cytochrome c oxidation, as previously described (Brautigan et al., 1978). The reaction was carried out at 25° C. in 1.3 mL of standard respiratory medium (as in mitochondrial respiration) supplemented with 2 μM rotenone, 10 μM oxidized cytochrome c, 0.3 mg TritonX-100. Following addition of the sample, the reaction was initiated by adding 5 mM ascorbate plus 0.25 mM tetramethylphenylene-diamine (TMPD).
ATP content was measured with a commercial kit according to the manufacturer's instructions (Roche).

PGC-1α/β KO myotubes = test: Gene expression (qPCR) and HIF-1α immunoblot in PGC-1α/β KO myotubes; format: cell-based, mice; design: expression of mitochondrially-encoded ETC genes (ND1, CYTB, COX1, ATP6): dose or concentration left out as unconfirmed; conditions: primary PGC-1α/β KO myotubes incubated with NMN (12 h)
Experimental: (§1) Primary myoblasts cells were isolated from WT, SIRT1 KO (Price et al., 2012) and PGC-1α/β KO (Zechner et al., 2010) mice as previously described (Price et al., 2012). WT and PGC-1α/β KO primary myoblasts were plated and allowed to differentiate into myotubes by replacing the media with low glucose DMEM supplemented with 2% horse serum (Sigma-Aldrich) for 4 days. After the differentiation the cells were infected with empty vector or flag-SIRT1 adenovirus as described before (Gerhart-Hines et al., 2007). Media was replaced with fresh DMEM supplemented with 2% horse serum (Sigma-Aldrich) for an additional 48 hr and, after that the cells were harvested for the different assays as described. To investigate the role of HIF-1α in genome asynchrony, PGC-1α/β KO primary myotubes were treated for 12 hours with 1 mM DMOG (Sigma) or 10 μM DFO (Sigma), 24 h after infection with empty vector of flag-SIRT1 adenovirus or after 12 h treatment with 500 mM NMN (Sigma).
RNA from skeletal muscle tissue and C2C12 cells were extracted with RNeasy mini kit (Qiagen) according to the instructions and quantified using the NanoDrop 1000 spectrophotometer (Thermo Scientific). cDNA was synthesized with the iSCRIP cDNA synthesis kit (BioRad) using 600 ng of RNA. Quantitative RT-PCR reactions were performed using 1 μM of primers and LightCycler® 480 SYBR Green Master (Roche) on an LightCycler® 480 detection system (Roche). Calculations were performed by a comparative method (2-ΔCT) using 18S as an internal control. For mtDNA analysis, total DNA was extracted with DNeasy blood and tissue kit (Qiagen). mtDNA was amplified using primers specific for the mitochondrial cytochrome c oxidase subunit 2 (COX2) gene and normalized to genomic DNA by amplification of the ribosomal protein s18 (rps18) nuclear gene. Primers were designed using the IDT software (IDT) and the primer sequences can be found in Table 1.
Protein extracts from tissue or C2C12 cells were obtained by lysis in ice-cold lysis buffer (150 mM NaCl, 10 mM Tris HCl (pH 7.4), 1 mM EDTA, 1 mM EGTA, 1% Triton X-100, 0.5% NP-40) supplemented with a cocktail of protease and phosphatase inhibitors (Roche). Protein content was determined by the Bradford protein assay (Biorad), and 50 μg proteins were run on SDS-PAGE under reducing conditions. The separated proteins were then electrophoretically transferred to a polyvinylidene difluoride membrane (Perkin-Elmer). […] The immunostaining was detected using horseradish peroxidase-conjugated anti-rabbit or anti-mouse immunoglobulin for 1 h at room temperature.

primary myoblasts = test: qPCR of mitochondrial-encoded genes in primary myoblasts with NMNAT1 knockdown; format: cell-based, mice; conditions: knockdown of NMNAT1, NMN
Experimental: as §1, with “To investigate the role of HIF-1α in genome asynchrony, PGC-1α/β KO primary myotubes were treated for 12 hours with 1 mM DMOG (Sigma) or 10 μM DFO (Sigma), 24 h after infection with empty vector of flag-SIRT1 adenovirus or after 12 h treatment with 500 mM NMN (Sigma).” left out
RNA from skeletal muscle tissue and C2C12 cells were extracted with RNeasy mini kit (Qiagen) according to the instructions and quantified using the NanoDrop 1000 spectrophotometer (Thermo Scientific). cDNA was synthesized with the iSCRIP cDNA synthesis kit (BioRad) using 600 ng of RNA. Quantitative RT-PCR reactions were performed using 1 μM of primers and LightCycler® 480 SYBR Green Master (Roche) on an LightCycler® 480 detection system (Roche). […]

[2] = treated 24-month-old mice, NMN 500 mg/kg IP, one week

## NC(=O)c1ccc[n+]([C@@H]2O[C@H](COP(=O)([O-])O)[C@@H](O)[C@H]2O)c1 [NMN, nicotinamide mononucleotide]
[1]; 22-month-old mice, gastrocnemius, NMN one week
  ATP levels: increase
[1]; Egln1 KO mice treated with NMN, compared to WT controls
  ATP levels in the skeletal muscle: did not restore
[1]; inducible SIRT1 KO mice
  ability of NMN to improve mitochondrial function: lost in animals lacking SIRT1
[1]; old mice, NMN one week (FIG. 24H: 3- and 24-month-old)
  COX activity: increase
[1]; [2]
  ATP levels: increases
  COX activity: increases
  mitochondrial membrane potential: restoration of mitochondrial membrane potential to the levels of the young mice
PGC-1α/β KO myotubes
  expression of mitochondrially-encoded ETC genes (ND1, CYTB, COX1, ATP6): induced expression of mitochondrially-encoded ETC genes
Primary myoblasts
  expression of mitochondrial-encoded genes: completely abolishes the ability of NMN to induce the expression of mitochondrial-encoded genes
